Values belong to the molecule of their own block, whether it stands above or below them.
Tests used:
[1] = target: Protein farnesyltransferase (Homo sapiens, UniProt P49354+P49356); assay: In vitro inhibitory activity was evaluated against farnesyltransferase (FTase); assay type: protein-complex assay
[2] = (§1) Half life of compound determined in rat after iv administration at a dose of 10 mg/kg; assay type: ADME, organism-based; set-up: dose 10 mg/kg, route intravenous; conditions: in vivo
[3] = Tmax of compound determined in rat after iv administration at a dose of 10 mg/kg; assay type: ADME, organism-based; set-up: dose 10 mg/kg, route intravenous; conditions: in vivo
[4] = Area under curve of compound determined in dog after iv administration at a dose of 10 mg/kg; assay type: ADME, organism-based, Canis lupus familiaris; set-up: dose 10 mg/kg, route intravenous; conditions: in vivo
[5] = Area under curve of compound from zero time to infinity determined in dog […] at a dose of 10 mg/kg; assay type: ADME, organism-based, Canis lupus familiaris; set-up: time infinity, dose 10 mg/kg, route intravenous; conditions: in vivo
[6] = Oral bioavailability of compound determined in dog […] at a dose of 10 mg/kg; assay type: ADME, organism-based, Canis lupus familiaris; conditions: in vivo
Rattus norvegicus = assay: Maximum plasma drug concentration of compound determined in rat after iv administration at a dose of 10 mg/kg; assay type: ADME, organism-based; set-up: dose 10 mg/kg, route intravenous; conditions: in vivo
[7] = Tmax of compound determined in dog […] at a dose of 10 mg/kg; assay type: ADME, organism-based, Canis lupus familiaris; set-up: dose 10 mg/kg, route intravenous; conditions: in vivo
[8] = as §1; assay type: ADME, organism-based; set-up: dose 10 mg/kg, route intravenous; conditions: in vivo; remark: listed apart in the source
[9] = Oral bioavailability of compound determined in mouse […] at a dose of 10 mg/kg; assay type: ADME, organism-based; conditions: in vivo
Canis familiaris = assay: Maximum plasma drug concentration of compound determined in dog […] at a dose of 10 mg/kg; assay type: ADME, organism-based, Canis lupus familiaris; set-up: dose 10 mg/kg, route intravenous; conditions: in vivo
[10] = Area under curve of compound determined in rat after iv administration at a dose of 10 mg/kg; assay type: ADME, organism-based; set-up: dose 10 mg/kg, route intravenous; conditions: in vivo
[11] = Area under curve of compound from zero time to infinity determined in rat after iv administration at a dose of 10 mg/kg; assay type: ADME, organism-based; set-up: time infinity, dose 10 mg/kg, route intravenous; conditions: in vivo
[12] = Oral bioavailability of compound determined in rat […] at a dose of 10 mg/kg; assay type: ADME, organism-based; conditions: in vivo

SMILES: CSCC[C@H](NC(=O)c1ccc(CNCc2ccco2)cc1-c1ccccc1)C(=O)O
- IC50 [1]: 560 nM

SMILES: COc1ccccc1-c1ccc(COCc2ccc(C(=O)N[C@@H](CCSC)C(=O)O)c(-c3ccccc3C)c2)o1
- IC50 [1]: 20 nM

SMILES: CSCC[C@H](NC(=O)c1ccc(COCc2ccc(-c3ccccn3)o2)cc1-c1ccccc1C)C(=O)O
- IC50 [1]: 19 nM

SMILES: CSCC[C@H](NC(=O)c1ccc(COCc2ccc(-c3cccnc3)o2)cc1-c1ccccc1C)C(=O)O
- IC50 [1]: 6.5 nM

SMILES: CSCC[C@H](NC(=O)c1ccc(COCc2ccc(-c3cccc(F)c3)o2)cc1-c1ccccc1C)C(=O)O
- IC50 [1]: 7.6 nM

SMILES: CSCC[C@H](NC(=O)c1ccc(COc2ccccc2)cc1-c1ccccc1)C(=O)O
- IC50 [1]: > 1000 nM

SMILES: COc1ccc(-c2ccc(COCc3ccc(C(=O)N[C@@H](CCSC)C(=O)O)c(-c4ccccc4C)c3)o2)cc1
- IC50 [1]: 8.4 nM

SMILES: CSCC[C@H](NC(=O)c1ccc(COCc2ccc(-c3cccc(C(F)(F)F)c3)o2)cc1-c1ccccc1C)C(=O)O
- IC50 [1]: 8.8 nM

SMILES: COc1cccc(-c2ccc(COCc3ccc(C(=O)N[C@@H](CCSC)C(=O)O)c(-c4ccccc4C)c3)o2)c1
- IC50 [1]: 12 nM

SMILES: CSCC[C@H](NC(=O)c1ccc(COCc2ccc(-c3ccccc3C(F)(F)F)o2)cc1-c1ccccc1C)C(=O)O
- IC50 [1]: 9.9 nM

SMILES: CSCC[C@H](NC(=O)c1ccc(COCc2ccc(-c3ccc(C(C)=O)cc3)o2)cc1-c1ccccc1C)C(=O)O
- IC50 [1]: 6.6 nM

The next molecules have a lower IC50 [1] than those just listed; values first:

- IC50 [1]: 4.9 nM
SMILES: CSCC[C@H](NC(=O)c1ccc(COCc2ccc(-c3ccc(Cl)c(F)c3)o2)cc1-c1ccccc1C)C(=O)O

- half-life [2]: 74.4 min
- Tmax [3]: 42 min
- AUC [4]: 4940 ng·h/mL
- AUC [5]: 1040 ng·h/mL
- bioavailability [6]: 21.1%
- Cmax (Rattus norvegicus): 1250 ng/mL
- Tmax [7]: 24 min
- half-life [8]: 78 min
- bioavailability [9]: 32%
- Cmax (Canis familiaris): 713 ng/mL
- AUC [10]: 8100 ng·h/mL
- AUC [11]: 2390 ng·h/mL
- IC50 [1]: 0.7 nM
- bioavailability [12]: 30%
SMILES: CSCC[C@H](NC(=O)c1ccc(COCc2ccc(-c3ccc(Cl)cc3)o2)cc1-c1ccccc1C)C(=O)[O-].[Li+]

- IC50 [1]: 2.4 nM
SMILES: CSCC[C@H](NC(=O)c1ccc(COCc2ccc(-c3ccncc3)o2)cc1-c1ccccc1C)C(=O)O

- IC50 [1]: 6 nM
SMILES: CSCC[C@H](NC(=O)c1ccc(COCc2ccc(-c3ccccc3)o2)cc1-c1ccccc1C)C(=O)O

- IC50 [1]: 6.3 nM
SMILES: CSCC[C@H](NC(=O)c1ccc(COCc2ccc(-c3ccccc3F)o2)cc1-c1ccccc1C)C(=O)O

- IC50 [1]: 2.9 nM
SMILES: CSCC[C@H](NC(=O)c1ccc(COCc2ccc(-c3ccc(C)cc3)o2)cc1-c1ccccc1C)C(=O)O

- IC50 [1]: 6.2 nM
SMILES: CSCC[C@H](NC(=O)c1ccc(COCc2ccc(-c3ccc(SC)cc3)o2)cc1-c1ccccc1C)C(=O)O

- IC50 [1]: 2.6 nM
SMILES: CSCC[C@H](NC(=O)c1ccc(COCc2ccc(-c3ccc(N(C)C)cc3)o2)cc1-c1ccccc1C)C(=O)O

- IC50 [1]: 1.5 nM
SMILES: CSCC[C@H](NC(=O)c1ccc(COCc2ccc(-c3ccc(F)cc3)o2)cc1-c1ccccc1C)C(=O)O

- IC50 [1]: 2.9 nM
SMILES: CSCC[C@H](NC(=O)c1ccc(COCc2ccc(-c3ccc(C(C)C)cc3)o2)cc1-c1ccccc1C)C(=O)O

- IC50 [1]: 1.2 nM
SMILES: CSCC[C@H](NC(=O)c1ccc(COCc2ccc(-c3ccc(C=O)cc3)o2)cc1-c1ccccc1C)C(=O)O

- IC50 [1]: 3 nM
SMILES: CSCC[C@H](NC(=O)c1ccc(COCc2ccc(-c3ccc(C(F)(F)F)cc3)o2)cc1-c1ccccc1C)C(=O)O

- IC50 [1]: 6 nM
SMILES: CSCC[C@H](NC(=O)c1ccc(COCc2ccc(-c3cccc([N+](=O)[O-])c3)o2)cc1-c1ccccc1C)C(=O)O

- IC50 [1]: 3 nM
SMILES: COC(=O)[C@H](CCSC)NC(=O)c1ccc(COCc2ccc(Br)o2)cc1-c1ccccc1C

Reference: ChEMBL document CHEMBL1131673, “Potent and orally bioavailable noncysteine-containing inhibitors of protein farnesyltransferase” (Bioorg Med Chem Lett, 1999)
